Like-named read-outs stand apart in the source and are kept apart here. One block for each sequence: values may come before it. Ends that are not written are not given here.
Tests used:
DRB1*0401 = molecular target: T1, DRB1*0401 (Homo sapiens, UniProt P01903+P01911, A100K/A169T/F76Y/I96L/K127E/L162R/M171V/N62H/P40V/Q125Y/R42H/S133A/S149N/S66Y/V115G/V209L/W38E); experiment: Class II peptide-binding assay DRB1*0401 (DR4w4)
T1 construct: Epstein-Barr virus (EBV) transformed homozygous cell lines were used as sources of human HLA Class II molecules; endogenous in cells; host or cells: PREISS (EBV-transformed homozygous B cell line)

DRB1*0404 = molecular target: T2, DRB1*0404 (Homo sapiens, UniProt P01903+P01911, A100R/A169T/F76Y/I96L/K127E/L162R/M171V/N62H/P40V/Q125Y/R42H/S133A/S149N/S66Y/V209L/W38E); experiment: Class II peptide-binding assay DRB1*0404 (DR4w14)
T2 construct: Epstein-Barr virus (EBV) transformed homozygous cell lines were used as sources of human HLA Class II molecules; endogenous in cells; host or cells: BIN40 (EBV-transformed homozygous B cell line)

DRB1*0405 = molecular target: T3, DRB1*0405 (Homo sapiens, UniProt P01903+P01911, A100R/A169T/D86S/F76Y/I96L/K127E/L162R/M171V/N62H/P40V/Q125Y/R42H/S133A/S149N/S66Y/V115G/V209L/W38E); experiment: Class II peptide-binding assay DRB1*0405 (DR4w15)
T3 construct: Epstein-Barr virus (EBV) transformed homozygous cell lines were used as sources of human HLA Class II molecules; endogenous in cells; host or cells: KT3 (EBV-transformed homozygous B cell line)

DRB1*0701 = molecular target: T4, DRB1*0701 (Homo sapiens, UniProt P01903+P01911, A100R/A102G/A103Q/D57E/D86V/E43K/F76Y/K127E/L162R/M171V/P40G/Q125H/Q99D/R33Q/R42Y/R54Q/S133A/S66F/T210M/V115G/Y107V/Y59L/Y89S); experiment: Class II peptide-binding assay DRB1*0701 (DR7)
T4 construct: Epstein-Barr virus (EBV) transformed homozygous cell lines were used as sources of human HLA Class II molecules; endogenous in cells; host or cells: PITOUT (EBV-transformed homozygous B cell line)

DRB1*0802 = molecular target: T5, DRB1*0802 (Homo sapiens, UniProt P01903+P01911, A100R/A103L/A169T/F76Y/H45Y/I96F/K41T/L162R/M171V/P40S/Q125H/Q178H/Q39Y/Q99D/R218S/R42G/S66Y/V115G/W38E); experiment: Class II peptide-binding assay DRB1*0802 (DR8w2)
T5 construct: Epstein-Barr virus (EBV) transformed homozygous cell lines were used as sources of human HLA Class II molecules; endogenous in cells; host or cells: OLL (EBV-transformed homozygous B cell line)

DRB1*0901 = DRB1*0901 (Homo sapiens, UniProt P01903+P01911, A100R/A103E/D57H/D86V/F55Y/F60I/F76Y/I96F/K127E/L162R/M171V/P40D/Q125H/Q99R/R33Q/R42F/S133A/S66N/T210M/V115G/W38K/Y107V/Y59G/Y89S); experiment: Class II peptide-binding assay DRB1*0901 (DR9)
DRB1*1101 = molecular target: T6, DRB1*1101 (Homo sapiens, UniProt P01903+P01911, A100R/A169T/A87E/I96F/K41T/L162R/M171V/P40S/Q125H/Q178H/Q39Y/Q99D/R42S/S66Y/T262R/V115G/W38E); experiment: Class II peptide-binding assay DRB1*1101 (DR5w11)
T6 construct: Epstein-Barr virus (EBV) transformed homozygous cell lines were used as sources of human HLA Class II molecules; endogenous in cells; host or cells: SWEIG (EBV-transformed homozygous B cell line)
T6 sequence (P01903 26-254, other chains not shown): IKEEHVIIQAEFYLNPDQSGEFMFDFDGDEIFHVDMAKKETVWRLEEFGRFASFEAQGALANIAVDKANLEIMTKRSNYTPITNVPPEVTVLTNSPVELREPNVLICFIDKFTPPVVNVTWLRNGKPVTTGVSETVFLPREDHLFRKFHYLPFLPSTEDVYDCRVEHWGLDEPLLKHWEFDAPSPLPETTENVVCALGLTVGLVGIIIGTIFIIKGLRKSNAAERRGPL

DRB1*1302 = molecular target: T7, DRB1*1302 (Homo sapiens, UniProt P01903+P01911, A100E/A169T/K41T/L162R/M171V/P40S/Q125H/Q178H/Q39Y/Q99D/R42S/S66N/T262R/V115G/W38E/Y61H); experiment: Class II peptide-binding assay DRB1*1302 (DR6w19)
T7 construct: Epstein-Barr virus (EBV) transformed homozygous cell lines were used as sources of human HLA Class II molecules; endogenous in cells; host or cells: HO301 / H0301 (EBV-transformed homozygous B cell line)
T7 sequence (P01903 26-254, other chains not shown): as above

DRB3*0101 = molecular target: T8, DRB3*0101 (Homo sapiens, UniProt P01903+P79483); experiment: Class II peptide-binding assay DRB3*0101 (DR52a)
T8 construct: expressed in transfected cells; host or cells: transfected fibroblasts TR81.19

DRB4*0101 = molecular target: T9, DRB4*0101 (Homo sapiens, UniProt P01903+P13762, G164S); experiment: Class II peptide-binding assay DRB4*0101 (DRw53)
T9 construct: expressed in transfected cells; host or cells: transfected fibroblasts L257.6

DRB5*0101 = molecular target: T10, DRB5*0101 (Homo sapiens, UniProt P01903+Q30154); experiment: Class II peptide-binding assay DRB5*0101 (DR2w2a)
T10 construct: Epstein-Barr virus (EBV) transformed homozygous cell lines were used as sources of human HLA Class II molecules; endogenous in cells; host or cells: GM3107 (EBV-transformed homozygous B cell line)

DQB1*0301 = DQB1*0301 (Homo sapiens, UniProt P01909+P01920); experiment: Class II peptide-binding assay DQB1*0301; settings: IFNb 15-mer peptides, Table 5D
DQB1*0301, sequence (P01920 33-261, other chains not shown): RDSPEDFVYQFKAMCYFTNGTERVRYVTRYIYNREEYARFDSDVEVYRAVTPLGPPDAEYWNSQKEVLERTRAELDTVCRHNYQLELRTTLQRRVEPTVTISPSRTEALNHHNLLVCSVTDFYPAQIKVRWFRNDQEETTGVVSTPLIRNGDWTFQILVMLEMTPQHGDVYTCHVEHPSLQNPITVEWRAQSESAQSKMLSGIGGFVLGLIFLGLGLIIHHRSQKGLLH

DRB1*0101 = molecular target: T11, DRB1*0101 (Homo sapiens, UniProt P01903+P01911, A100R/D57E/F55L/F60I/F76Y/I96L/L162R/M171V/P40L/Q125E/R42F/V115G/Y59C); experiment: Class II peptide-binding assay DRB1*0101 (DR1)
T11 construct: Epstein-Barr virus (EBV) transformed homozygous cell lines were used as sources of human HLA Class II molecules; endogenous in cells; host or cells: LG2 (EBV-transformed homozygous B cell line)

DRB1*0301 = molecular target: T12, DRB1*0301 (Homo sapiens, UniProt P01903+P01911, A100K/A102G/A103R/A169T/F55Y/I96L/K41T/L162R/M171V/P40S/Q125H/Q178H/Q39Y/R42S/S66N/T106N/T262R/W38E/Y61H); experiment: Class II peptide-binding assay DRB1*0301 (DR3)
T12 construct: Epstein-Barr virus (EBV) transformed homozygous cell lines were used as sources of human HLA Class II molecules; endogenous in cells; host or cells: MAT (EBV-transformed homozygous B cell line)
T12 sequence (P01903 26-254, other chains not shown): as the sequence (P01903 26-254, other chains not shown) above

DRB1*1501 = molecular target: T13, DRB1*1501 (Homo sapiens, UniProt P01903+P01911); experiment: Class II peptide-binding assay DRB1*1501 (DR2w2b)
T13 construct: expressed in transfected cells; host or cells: transfected fibroblasts L466.1

[1] = known HLA-DR and DQ restricted epitopes, Table 6

Sequence: DIEKKIAKMEKASSVFNVVNS
IC50 (DRB1*0401): 97 nM
IC50 (DRB1*0404): 992 nM
IC50 (DRB1*0405): 3390 nM
IC50 (DRB1*0701): 2490 nM
IC50 (DRB1*0802): > 20000 nM
IC50 (DRB1*0901): > 20000 nM
IC50 (DRB1*1101): 90 nM
IC50 (DRB1*1302): > 15000 nM
IC50 (DRB3*0101): > 20000 nM
IC50 (DRB4*0101): > 20000 nM
IC50 (DRB5*0101): 1810 nM

Sequence: YSGPLKAEIAQRLEDV
IC50 (DRB1*0101): 13 nM
IC50 (DRB1*0301; [1]): 11300 nM
IC50 (DRB1*0401; [1]): 2570 nM
IC50 (DRB1*0404; [1]): > 20000 nM
IC50 (DRB1*0405; [1]): > 2500 nM
IC50 (DRB1*0802): > 20000 nM
IC50 (DRB1*0901; [1]): 18000 nM
IC50 (DRB1*1101; [1]): > 20000 nM
IC50 (DRB1*1302; [1]): 771 nM
IC50 (DRB1*1501; known HLA-DR and DQ restricted epitopes, Table 6, read-out: Binding capacity (IC50 nM) DRB1*1501): > 20000 nM
IC50 (DRB3*0101): 1330 nM
IC50 (DRB4*0101): 4450 nM

Sequence: YTLLQAAPALDKLKLTGDEATGANI
IC50 (DRB1*0101): 2.1 nM
IC50 (DRB1*0301): 2050 nM
IC50 (DRB1*0401): 286 nM
IC50 (DRB1*0404): 1110 nM
IC50 (DRB1*0405): 108 nM
IC50 (DRB1*0701): > 20000 nM
IC50 (DRB1*0802): 160 nM
IC50 (DRB1*0901): 1950 nM
IC50 (DRB1*1101): 200 nM
IC50 (DRB1*1302): > 5000 nM
IC50 (DRB1*1501): 1040 nM
IC50 (DRB3*0101): 3850 nM
IC50 (DRB5*0101): 6.3 nM

More lines, now with the values ahead:

IC50 (DQB1*0301): 6350 nM
Sequence: GRLEYCLKDRRNFDI

IC50 (DQB1*0301): 4100 nM
Sequence: KEDSHCAWTIVRVEI

IC50 (DQB1*0301): 7450 nM
Sequence: MSYNLLGFLQRSSNC

IC50 (DQB1*0301): 515 nM
Sequence: QKEDAAVTIYEMLQN
